Source: US7199128B2, “8-N-substituted-2H-isothiazolo[5,4-b]quinolizine-3,4-diones and related compounds as antiinfective agents” (Achillion Pharmaceuticals, Inc., priority 2005, dated 2007)
Converted amounts (≈) assume the structure as drawn. Like-named read-outs stand apart in the source and are kept apart here.

Assays:
E. coli ATCC 25922 = assay: Minimum inhibitory concentration (MIC) assay, broth microdilution; type: cell-based; details: Escherichia coli, ATCC25922; against E. coli; visible growth after 18–24 h at 37° C.
Method: (§1) The antimicrobial activity of the compounds of the invention may be evaluated by a number of methods, including the following visual minimum inhibitory concentration (MIC) assay. This assay determines the minimum concentration of compound required to inhibit growth of a bacterial strain. Minimum Inhibitory Concentration (MIC) Assay Whole-cell antibacterial activity is determined by broth microdilution using conditions recommended by the National Committee for Clinical Laboratory Standards (NCCLS). […] Test compounds are dissolved in DMSO and diluted 1:50 in Mueller-Hinton II broth (Becton-Dickinson) to produce a 256 μg/ml stock solution. In a 96-well microtiter plate, the compound solution is serially two-fold diluted in Mueller-Hinton II broth. After the compounds are diluted, a 50 μl aliquot of the test organism (˜1×10^6 cfu/mL) is added to each well of the microtiter plate. The final test concentrations range from 0.125–128 μg/mL. Inoculated plates are incubated in ambient air at 37° C. for 18 to 24 hours. The organisms selected for testing included laboratory strains S. aureus ATCC 29213 and E. coli ATCC 25922 (strains purchased from American Type Culture Collection, Manassas, Va.). The minimum inhibitory concentration (MIC) was determined as the lowest concentration of compound that inhibited visible growth of the test organism.

S. aureus ATCC 29213 = assay: as above; type: cell-based; details: Staphylococcus aureus, ATCC29213; against S. aureus; visible growth after 18–24 h at 37° C.
Method: as §1

E. coli DNA gyrase = biological target: T1, E. coli DNA gyrase (Escherichia coli, UniProt P0AES4+P0AES6); assay: DNA gyrase supercoiling assay; type: biochemical; details: read-out: inhibition of E. coli DNA gyrase supercoiling IC50
T1 construct: made in house; host or cells: E. coli
Method: Enzyme activity is measured by a supercoiling assay that monitors the ATP-dependent conversion of relaxed pBR322 DNA to the supercoiled form. Analysis is done by gel electrophoresis through 1% agarose/TBE gel. DNA is visualized with an Alpha Imager 2200 Analysis System and the IC50 determined by nonlinear regression analysis with Graphpad Prism software. E. coli DNA gyrase enzyme subunits, gyrA and gyrB, are purified to homogeneity from over-expression constructs in E. coli.

[1] = biological target: T2, S. aureus topoisomerase IV (Staphylococcus aureus, UniProt P0C1S7+P0C1U9); assay: Topoisomerase IV decatenation assay; type: biochemical
T2 construct: made in house; host or cells: E. coli
Method: Topoisomerase IV Activity
Enzyme activity is measured by a decatenation assay that monitors the ATP-dependent unlinking of DNA minicircles from kinetoplast DNA. Analysis is done by gel electrophoresis through 1% agarose/TBE gel. DNA is visualized with an Alpha Imager 2200 Analysis System and the IC50 determined by nonlinear regression analysis with Graphpad Prism software. S. aureus topoismerase IV enzyme subunits, grlA and grlB, are purified to homogeneity from over-expression plasmids in E. coli.

S. aureus DNA gyrase = S. aureus DNA gyrase (Staphylococcus aureus, UniProt P0A0K8+P20831); assay: DNA gyrase supercoiling assay; type: biochemical
[2] = Cell viability staining with Alamar Blue (cytotoxicity); type: cell-based; details: Chinese hamster, CHO (Chinese hamster ovary) cells, positive control
Method: (§2) Optimal cell density is first determined by plating cells in a 96-well plate standard sterile tissue culture plates in 100 μl media, 10%FBS at six cell densities from 500 cells/well to 15,000 cells/well. A cell free well containing only media is used as a control. Cells are incubated at 37° C. in a 5% CO2 incubator for 24 hours. 10% culture volume (10 microliters) of Alamar Blue (Biosource, DAL1100, 100 ml) is then added. Cells are incubated at 37° C. in a 5% CO2 incubator and read in a Victor V plate reader, 544 nm excitation, 590 nm emission, at 3, 4, and 24 hours after the addition of Alamar Blue. The cell number vs. change in fluorescence is plotted to determine linearity of signal vs. cell number. The optimal density varies between 500–15,000 cells/well depending on the specific cell type. The optimal density is selected based on the highest number of cells that is still in the linear response range. Determination of Compound Cytotoxicity Cells are plated at optimal cell density in a standard sterile tissue culture 96 well plate, and incubated at 37° C. O/N in a 5% CO2 incubator. 12 to 48 hours post-plating media is removed. […] Plates are incubated 4 hours at 37° C. in a 5% CO2 incubator and read in a Victor V plate reader, 544 nm excitation, 590 nm emission. […] The change in fluorescence vs. concentration of test compound is plotted to determine the cytotoxicity of the compound.

[3] = as above; type: cell-based; details: human, HEP 2 (laryngeal carcinoma) cells; HEP 2 cells, positive control
Method: as §2

T2 sequence (P0C1U9 whole entry): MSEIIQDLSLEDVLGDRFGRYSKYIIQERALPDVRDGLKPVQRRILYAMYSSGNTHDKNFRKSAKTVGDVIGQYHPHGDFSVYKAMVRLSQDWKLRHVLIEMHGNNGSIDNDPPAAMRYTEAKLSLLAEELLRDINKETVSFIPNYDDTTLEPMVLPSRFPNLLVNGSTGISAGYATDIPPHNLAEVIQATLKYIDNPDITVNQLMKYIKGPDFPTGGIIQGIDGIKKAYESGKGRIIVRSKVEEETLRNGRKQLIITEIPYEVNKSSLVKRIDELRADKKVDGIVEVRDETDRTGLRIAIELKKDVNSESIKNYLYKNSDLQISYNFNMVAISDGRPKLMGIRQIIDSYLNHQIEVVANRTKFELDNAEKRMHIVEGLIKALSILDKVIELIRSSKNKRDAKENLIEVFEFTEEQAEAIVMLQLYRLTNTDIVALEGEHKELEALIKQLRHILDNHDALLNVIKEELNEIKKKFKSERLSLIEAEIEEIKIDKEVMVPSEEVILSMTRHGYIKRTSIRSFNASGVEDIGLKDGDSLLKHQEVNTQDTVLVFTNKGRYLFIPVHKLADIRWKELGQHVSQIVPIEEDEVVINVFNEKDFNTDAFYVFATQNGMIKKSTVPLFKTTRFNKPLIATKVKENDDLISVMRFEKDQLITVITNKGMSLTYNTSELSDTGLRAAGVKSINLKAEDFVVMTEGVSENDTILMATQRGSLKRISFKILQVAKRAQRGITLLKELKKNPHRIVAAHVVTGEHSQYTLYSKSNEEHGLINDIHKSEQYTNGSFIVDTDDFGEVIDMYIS
T2 sequence (P0C1S7 whole entry): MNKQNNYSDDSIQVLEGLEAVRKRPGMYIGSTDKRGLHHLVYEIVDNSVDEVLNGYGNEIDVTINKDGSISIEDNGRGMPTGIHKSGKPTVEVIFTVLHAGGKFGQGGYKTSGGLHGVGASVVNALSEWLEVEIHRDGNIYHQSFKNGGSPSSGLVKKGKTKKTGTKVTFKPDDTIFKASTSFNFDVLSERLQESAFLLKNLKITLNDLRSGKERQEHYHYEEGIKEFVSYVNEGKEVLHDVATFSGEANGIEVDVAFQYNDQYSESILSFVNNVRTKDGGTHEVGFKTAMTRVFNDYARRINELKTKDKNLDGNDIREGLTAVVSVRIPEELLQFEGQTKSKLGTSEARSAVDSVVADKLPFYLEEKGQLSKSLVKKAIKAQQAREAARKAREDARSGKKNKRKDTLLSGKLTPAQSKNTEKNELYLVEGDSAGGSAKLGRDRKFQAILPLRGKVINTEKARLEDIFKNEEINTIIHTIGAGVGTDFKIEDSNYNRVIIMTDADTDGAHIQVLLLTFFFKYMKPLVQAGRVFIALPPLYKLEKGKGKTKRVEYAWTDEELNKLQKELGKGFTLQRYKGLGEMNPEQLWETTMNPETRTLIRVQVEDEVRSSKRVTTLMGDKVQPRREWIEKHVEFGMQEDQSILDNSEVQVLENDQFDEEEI
T1 sequence (P0AES4 whole entry, one chain of several): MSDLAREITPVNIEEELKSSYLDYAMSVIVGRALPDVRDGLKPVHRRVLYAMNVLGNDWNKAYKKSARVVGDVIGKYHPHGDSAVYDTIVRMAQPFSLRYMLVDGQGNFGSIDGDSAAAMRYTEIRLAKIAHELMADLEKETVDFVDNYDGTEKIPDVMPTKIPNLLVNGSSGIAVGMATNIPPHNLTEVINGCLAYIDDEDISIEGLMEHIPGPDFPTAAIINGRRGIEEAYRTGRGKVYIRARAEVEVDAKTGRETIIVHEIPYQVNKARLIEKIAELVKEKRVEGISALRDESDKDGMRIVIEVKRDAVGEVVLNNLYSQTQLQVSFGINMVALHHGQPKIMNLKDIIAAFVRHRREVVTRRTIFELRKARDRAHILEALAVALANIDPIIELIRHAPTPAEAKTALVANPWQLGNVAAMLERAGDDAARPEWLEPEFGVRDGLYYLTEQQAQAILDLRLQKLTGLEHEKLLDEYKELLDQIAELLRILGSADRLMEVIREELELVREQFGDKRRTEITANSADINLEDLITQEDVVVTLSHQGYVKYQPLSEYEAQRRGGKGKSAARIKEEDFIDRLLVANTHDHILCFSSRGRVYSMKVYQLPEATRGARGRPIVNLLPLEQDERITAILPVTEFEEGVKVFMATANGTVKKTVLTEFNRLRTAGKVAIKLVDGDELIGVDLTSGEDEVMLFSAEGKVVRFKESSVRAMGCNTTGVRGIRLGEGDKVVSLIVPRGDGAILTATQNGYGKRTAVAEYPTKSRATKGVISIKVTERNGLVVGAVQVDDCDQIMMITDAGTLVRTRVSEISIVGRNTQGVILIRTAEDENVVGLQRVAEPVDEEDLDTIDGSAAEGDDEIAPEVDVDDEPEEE
Chain of S. aureus DNA gyrase (P20831 whole entry): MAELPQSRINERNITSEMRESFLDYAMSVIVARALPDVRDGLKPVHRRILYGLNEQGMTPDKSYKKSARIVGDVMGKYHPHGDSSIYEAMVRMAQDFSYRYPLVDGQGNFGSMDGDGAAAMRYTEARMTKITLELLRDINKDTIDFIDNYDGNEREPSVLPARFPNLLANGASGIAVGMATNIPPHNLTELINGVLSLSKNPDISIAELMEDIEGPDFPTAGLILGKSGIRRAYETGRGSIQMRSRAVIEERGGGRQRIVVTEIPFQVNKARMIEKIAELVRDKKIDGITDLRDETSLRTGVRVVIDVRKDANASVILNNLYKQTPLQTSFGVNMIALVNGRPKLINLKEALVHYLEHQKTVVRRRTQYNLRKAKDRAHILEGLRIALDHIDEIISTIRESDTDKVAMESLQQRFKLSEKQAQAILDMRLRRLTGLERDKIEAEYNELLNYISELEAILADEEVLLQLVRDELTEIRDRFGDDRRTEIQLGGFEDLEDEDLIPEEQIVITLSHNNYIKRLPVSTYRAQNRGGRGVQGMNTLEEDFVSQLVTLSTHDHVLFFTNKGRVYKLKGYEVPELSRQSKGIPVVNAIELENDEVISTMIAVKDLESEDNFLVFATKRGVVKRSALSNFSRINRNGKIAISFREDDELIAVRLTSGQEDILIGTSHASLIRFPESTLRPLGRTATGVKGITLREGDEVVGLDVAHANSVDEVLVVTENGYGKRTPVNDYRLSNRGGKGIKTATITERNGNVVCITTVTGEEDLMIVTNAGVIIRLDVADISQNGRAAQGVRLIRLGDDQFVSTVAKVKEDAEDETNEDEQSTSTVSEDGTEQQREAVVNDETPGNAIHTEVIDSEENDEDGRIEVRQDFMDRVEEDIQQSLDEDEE
Chain of S. aureus DNA gyrase (P0A0K8 whole entry): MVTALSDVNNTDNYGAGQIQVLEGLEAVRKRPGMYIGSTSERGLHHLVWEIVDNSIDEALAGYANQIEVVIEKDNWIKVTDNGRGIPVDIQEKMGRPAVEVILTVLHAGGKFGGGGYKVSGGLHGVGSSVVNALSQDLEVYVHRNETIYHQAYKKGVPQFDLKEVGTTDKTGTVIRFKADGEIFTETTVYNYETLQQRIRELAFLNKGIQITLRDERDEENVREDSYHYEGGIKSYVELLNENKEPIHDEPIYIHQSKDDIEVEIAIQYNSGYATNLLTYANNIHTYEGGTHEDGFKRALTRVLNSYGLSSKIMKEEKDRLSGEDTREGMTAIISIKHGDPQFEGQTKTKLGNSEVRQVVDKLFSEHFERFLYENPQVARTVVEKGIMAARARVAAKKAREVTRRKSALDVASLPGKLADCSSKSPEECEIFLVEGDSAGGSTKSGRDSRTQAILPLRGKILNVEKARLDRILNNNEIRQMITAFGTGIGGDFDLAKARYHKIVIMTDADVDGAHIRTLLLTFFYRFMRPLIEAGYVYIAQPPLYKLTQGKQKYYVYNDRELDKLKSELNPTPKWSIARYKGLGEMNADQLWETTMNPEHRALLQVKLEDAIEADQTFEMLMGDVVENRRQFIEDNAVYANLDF

| Structure (SMILES) | MIC (E. coli ATCC 25922) [µg/mL] | MIC (S. aureus ATCC 29213) [µg/mL] | IC50 (E. coli DNA gyrase) [µM] | IC50 [1] [µM] | IC50 ([1]; read-out: inhibition of S. aureus topoisomerase IV activity IC50) [µM] | IC50 (S. aureus DNA gyrase) [µM] | CC50 [2] [µM] | CC50 [3] [µM] |
| --- | --- | --- | --- | --- | --- | --- | --- | --- |
| CCc1c2s[nH]c(=O)c2c(=O)n2ccc(N3CCC(N(C)C)C3)cc12 (racemic) [Compound 7, 8-(3-(dimethylamino)pyrrolidin-1-yl)-10-ethyl-2H-isothiazolo[5,4-b]quinolizine-3,4-dione] | 10 (≈ 27.9 µM) | 10 (≈ 27.9 µM) | < 1 | < 10 |  |  |  |  |
| CCc1c2s[nH]c(=O)c2c(=O)n2ccc(N3CCNCC3)cc12 [Compound 8, 10-ethyl-8-(piperazin-1-yl)-2H-isothiazolo[5,4-b]quinolizine-3,4-dione] | 10 (≈ 30.3 µM) | 10 (≈ 30.3 µM) | < 1 |  | < 10 | > 200 |  |  |
| O=c1[nH]sc2c(C3CC3)c3cc(N4CC(O)C4)c(F)cn3c(=O)c12 [Compound 9, 10-cyclopropyl-7-fluoro-8-(3-hydroxyazetidin-1-yl)-2H-isothiazolo[5,4-b]quinolizine-3,4-dione] |  |  |  |  |  | > 200 |  |  |
| CC(C)(C)c1ccc(C(O)CCCN2CCC(C(O)(c3ccccc3)c3ccccc3)CC2)cc1 (stereo not drawn) [Terfenadine] |  |  |  |  |  |  | 4.3 to 6.5 | 3 to 5 |
